Laboratory results taken from the supplement of paper PMC10307832.

Columns and labels:
Assay in all cases: relative viability (nuclei count vs DMSO), 5 days (fraction); higher = more cells survive
[1] = compound: CC(O)(CS(=O)(=O)c1ccc(F)cc1)C(=O)Nc1ccc(C#N)c(C(F)(F)F)c1 [Bicalutamide] + Nc1nc2[nH]cc(CCc3ccc(C(=O)N[C@@H](CCC(=O)O)C(=O)O)cc3)c2c(=O)[nH]1 [Pemetrexed] (partner 0.2 µM)
In short: (§1)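 Relative viability was taken as the ratio of nuclei in treated wells to nuclei in vehicle wells. Lung cancer cell lines in 1536-well plates received compounds by pin tool one day after seeding, either one drug alone or a fixed anchor-drug dose plus five library-drug doses (not always all listed) in √10 steps. Nuclei were counted on 4× images after 5 days of treatment, and values are medians of duplicate plates.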

Bromopyruvate + OSI-027 = compound: C(C(=O)C(=O)O)Br [Bromopyruvate] + COc1cccc2cc(-c3nc([C@H]4CC[C@H](C(=O)O)CC4)n4ncnc(N)c34)[nH]c12 [OSI-027] (partner 0.5 µM)
In short: as §1

Bicalutamide = compound: CC(O)(CS(=O)(=O)c1ccc(F)cc1)C(=O)Nc1ccc(C#N)c(C(F)(F)F)c1 [Bicalutamide]
In short: (§2)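 Following overnight incubation at 37 °C, lung cancer cell lines in 1536-well plates were pinned with five library-drug doses (not always all listed) in √10 steps on vehicle-anchored plates. The cells then spent 5 days without medium change before a combined fix, permeabilisation and Hoechst stain, 4× imaging and MetaXpress nuclear counts. Viability is the treated-to-vehicle ratio of nuclei, taken as the median across plates. Only plates with control CV below 25% and at least one doubling passed.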

Bromopyruvate = compound: C(C(=O)C(=O)O)Br [Bromopyruvate]
In short: as §2

| Cell Line | relative viability ([1]; first compound 0.08 µM) | relative viability ([1]; first compound 0.253 µM) | relative viability ([1]; first compound 0.8 µM) | relative viability ([1]; first compound 2.53 µM) | relative viability (Bromopyruvate + OSI-027; first compound 1 µM) | relative viability (Bromopyruvate + OSI-027; first compound 3.162 µM) | relative viability (Bromopyruvate + OSI-027; first compound 10 µM) | relative viability (Bromopyruvate + OSI-027; first compound 31.62 µM) | relative viability (Bromopyruvate + OSI-027; first compound 100 µM) | relative viability (Bicalutamide; 0.08 µM) | relative viability (Bicalutamide; 0.253 µM) | relative viability (Bicalutamide; 0.8 µM) | relative viability (Bicalutamide; 2.53 µM) | relative viability (Bromopyruvate; 1 µM) | relative viability (Bromopyruvate; 3.162 µM) | relative viability (Bromopyruvate; 10 µM) | relative viability (Bromopyruvate; 31.62 µM) | relative viability (Bromopyruvate; 100 µM) |
| --- | --- | --- | --- | --- | --- | --- | --- | --- | --- | --- | --- | --- | --- | --- | --- | --- | --- | --- |
| SK-MES-1 | 1.04 | 0.867 | 0.981 | 0.832 | 0.654 | 0.552 | 0.667 | 0.603 | 0.68 | 1.02 | 0.961 | 1.09 | 0.971 | 0.99 | 1.07 | 1.12 | 0.958 | 1.05 |
| SW 900 | 0.444 | 0.47 | 0.562 | 0.467 | 0.589 | 0.543 | 0.558 | 0.562 | 0.526 | 0.847 | 0.858 | 0.9 | 0.742 | 0.923 | 0.774 | 0.754 | 0.881 | 0.883 |
| SW 1573 | 0.952 | 0.749 | 1.02 | 0.819 | 0.751 | 0.674 | 0.73 | 0.475 | 0.0547 | 1.02 | 0.757 | 1.15 | 0.969 | 1.03 | 0.995 | 1.13 | 0.925 | 0.385 |
